# Assay results as given in patent US9862676B2, “Hydroxamic acid derivative or salt thereof” (TOYAMA CHEMICAL CO., LTD., priority 2013, dated 2018).
# What was measured:
# [1] = molecular target: T1, Pseudomonas aeruginosa LpxC enzyme (Pseudomonas aeruginosa, UniProt P47205); assay: Test to evaluate Pseudomonas aeruginosa LpxC enzyme inhibitory activity; type: biochemical
# T1 construct: made in house; host or cells: Escherichia coli
# T1 sequence (P47205 1-303): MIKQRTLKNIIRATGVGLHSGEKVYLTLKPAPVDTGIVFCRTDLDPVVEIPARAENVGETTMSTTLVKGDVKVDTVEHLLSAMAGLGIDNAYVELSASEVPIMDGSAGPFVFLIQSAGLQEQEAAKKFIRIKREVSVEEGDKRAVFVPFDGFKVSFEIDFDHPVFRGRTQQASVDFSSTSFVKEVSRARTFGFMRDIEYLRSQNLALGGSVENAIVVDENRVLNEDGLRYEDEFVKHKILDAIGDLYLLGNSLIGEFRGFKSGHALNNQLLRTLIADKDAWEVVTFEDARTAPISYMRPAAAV
# Description: The Pseudomonas aeruginosa LpxC enzyme activity was measured by reacting LpxC with its substrate UDP-3-O—(R-3-hydroxydecanoyl)-N-acetylglucosamine and measuring the amount of the reaction product by the quantification of an amino group present in the product. This measurement was carried out according to a method described in, for example, International Publication No. WO 11/132712 pamphlet or a method similar thereto.
# Specifically, to the Pseudomonas aeruginosa LpxC enzyme (which was obtained by preparing chromosomal DNA from Pseudomonas aeruginosa, obtaining the Pseudomonas aeruginosa LpxC gene by PCR (polymerase chain reaction) using LpxC-specific primers, and incorporating this gene into a vector, followed by gene expression using Escherichia coli), 20 μmol/L UDP-3-O—(R-3-hydroxydecanoyl)-N-acetylglucosamine (Wako Pure Chemical Industries, Ltd.) was added, and the mixture was incubated at 25° C. for 1 hour. This reaction was carried out in a 40 mmol/L HEPES buffer solution (pH 8.0) containing 0.02% Brij 35 and 80 μmol/L dithiothreitol. The reaction was terminated by the addition of 20% acetic acid (final concentration: 0.95%) to the reaction solution. Then, fluorescamine (final concentration: 1.6 mg/mL) dissolved in anhydrous dioxane was added thereto. The amount of the reaction product was detected at an excitation wavelength/fluorescence wavelength=390 nm/495 nm. Each test compound was allowed to coexist at various concentrations in the reaction to obtain an inhibition curve.
# [2] = tested on: Escherichia coli ATCC25922 strain; assay: Antibacterial activity, MIC by broth microdilution (CLSI); type: cell-based
# Description: (§1) The minimum inhibitory concentration (MIC) was measured according to the CLSI (Clinical and Laboratory Standards Institute) standard method using a broth microdilution method given below. The bacteria used were a Pseudomonas aeruginosa ATCC27853 strain, an Escherichia coli ATCC25922 strain and a Klebsiella pneumoniae ATCC13883 strain. Test bacterial cells of each strain cultured overnight in a Mueller-Hinton agar medium were scraped off and suspended at the McFarland 0.5 standard, and this suspension was diluted 10-fold to prepare an inoculum solution. The inoculum solution (0.005 mL) was inoculated to a cation-adjusted Mueller-Hinton medium containing each test compound and cultured at 35° C. for 16 to 20 hours. The minimum drug concentration at which bacterial growth was not visible to the naked eye was defined as MIC.
# [3] = tested on: Pseudomonas aeruginosa ATCC27853 strain; assay: as above; type: cell-based
# Description: as §1
# [4] = Test on inhibition of Vero cell growth (XTT); type: cell-based; conditions: African green monkey, Vero cells, 3 days culture, read-out: CC50 (concentration inhibiting 50% of cell growth)
# Description: Each test compound was dissolved in dimethyl sulfoxide, adjusted to each concentration using E'MEM, and then dispensed at 0.1 mL/well to 96-well microplates. The Vero cell suspension was prepared at 3×10^4 cells/mL using E'MEM supplemented with 20% FBS, inoculated thereto at 0.1 mL/well, and cultured at 37° C. for 3 days under 5% CO2. At the completion of the culture, PBS supplemented with 1 mg/mL 2,3-bis-(2-methoxy-4-nitro-5-sulfophenyl)-5-((phenylamino)carbonyl)-2H-tetrazolium inner salt monosodium salt (XTT) and 25 μM phenazine methosulfate (PMS) was prepared and added thereto at 50 μL/well. Approximately 2 hours later, the absorbance at 450 nm was measured using a microplate reader.
# [5] = tested on: Klebsiella pneumoniae ATCC13883 strain; assay: Antibacterial activity, MIC by broth microdilution (CLSI); type: cell-based
# Description: as §1
SMILES,IC50 [1] [nM],MIC [2] [µg/mL],MIC [3] [µg/mL],CC50 at 3 days [4] [µg/mL],MIC [5] [µg/mL]
"CNC(=O)[C@@](C)(C(=O)NO)N(C)C(=O)c1ccc(C#Cc2ccc([C@H](O)COCCO)cc2)cc1 [Example 24, (2S)—N-hydroxy-2-((4-((4-((1S)-1-hydroxy-2-(2-hydroxyethoxy)ethyl)phenyl)ethynyl)benzoyl)(methyl)amino)-N′,2-dimethyl-malonamide]",< 50,0.5,1,≥ 100,–
"CCOC[C@@H](O)c1ccc(C#Cc2ccc(C(=O)N(C)[C@@](C)(C(=O)NC)C(=O)NO)cc2)cc1 [Example 29, (2S)-2-((4-((4-((1S)-2-ethoxy-1-hydroxyethyl)phenyl)ethynyl)benzoyl)(methyl)amino)-N-hydroxy-N′,2-dimethyl-malonamide]",–,0.125,–,≥ 100,0.5
"CNC(=O)[C@@](C)(C(=O)NO)N(C)C(=O)c1ccc(C#Cc2ccc(C(O)CO)cc2)cc1 (stereo partly drawn) [Example 3, (2S)-2-((4-((4-(1,2-dihydroxyethyl)phenyl)ethynyl)benzoyl)(methyl)amino)-N-hydroxy-N′,2-dimethyl-malonamide]",< 50,–,1,≥ 100,–
"CNC(=O)[C@@](C)(C(=O)NO)N(C)C(=O)c1ccc(C#Cc2ccc([C@H](O)[C@@H](C)O)cc2)cc1 [Example 34, (2S)-2-((4-((4-((1S,2R)-1,2-dihydroxypropyl)phenyl)ethynyl)benzoyl)(methyl)amino)-N-hydroxy-N′,2-dimethyl-malonamide]",–,0.5,1,≥ 100,–
"CNC(=O)[C@@](C)(C(=O)NO)N(C)C(=O)c1ccc(C#Cc2ccc([C@H](O)[C@H](C)O)cc2)cc1 [Example 33, (2S)-2-((4-((4-((1S,2S)-1,2-dihydroxypropyl)phenyl)ethynyl)benzoyl)(methyl)amino)-N-hydroxy-N′,2-dimethylmalonamide]",< 50,0.5,1,≥ 100,–
"CNC(=O)[C@@](C)(C(=O)NO)N(C)C(=O)c1ccc(C#Cc2ccc(C(O)CCO)cc2)cc1 (stereo partly drawn) [Example 17, (2S)-2-((4-((4-(1,3-dihydroxypropyl)phenyl)ethynyl)benzoyl)(methyl)amino)-N-hydroxy-N′,2-dimethylmalonamide]",< 50,–,1,≥ 100,–
"CNC(=O)[C@@](C)(C(=O)NO)N(C)C(=O)c1ccc(C#Cc2ccc([C@@H](O)COC)cc2)cc1 [Example 31, (2S)—N-hydroxy-2-((4-((4-((1R)-1-hydroxy-2-methoxyethyl)phenyl)ethynyl)benzoyl)(methyl)amino)-N′,2-dimethyl-malonamide]",–,0.5,–,≥ 100,1
"CNC(=O)[C@@](C)(C(=O)NO)N(C)C(=O)c1ccc(C#Cc2ccc([C@H](O)CCO)cc2)cc1 [Example 25, (2S)-2-((4-((4-((1R)-1,3-dihydroxypropyl)phenyl)ethynyl)benzoyl)(methyl)amino)-N-hydroxy-N′,2-dimethyl-malonamide]",< 50,0.5,0.5,≥ 100,–
"CNC(=O)[C@@](C)(C(=O)NO)N(C)C(=O)c1ccc(C#Cc2ccc(/C=C/COC)cc2)cc1 [Example 12, (2S)—N-hydroxy-2-((4-((4-((1E)-3-methoxy-1-propen-1-yl)phenyl)ethynyl)benzoyl)(methyl)amino)-N′,2-dimethyl-malonamide]",–,0.0625,1,–,0.125
"CNC(=O)[C@@](C)(C(=O)NO)N(C)C(=O)c1ccc(C#Cc2ccc(COCCOC(C)=O)cc2)cc1 [Example 4, 2-((4-((4-((((1S)-2-(hydroxyamino)-1-methyl-1-((methylamino)carbonyl)-2-oxoethyl)(methyl)amino)carbonyl)phenyl)ethynyl)benzyl)oxy)ethyl acetate]",–,0.25,–,≥ 100,0.5
"CNC(=O)[C@@](C)(C(=O)NO)N(C)C(=O)c1ccc(C#Cc2ccc(C(C)O)cc2)cc1 (stereo partly drawn) [Example 16, (2S)—N-hydroxy-2-((4-((4-(1-hydroxyethyl)phenyl)ethynyl)benzoyl)(methyl)amino)-N′,2-dimethyl-malonamide]",< 50,0.25,1,–,1
"CNC(=O)[C@@](C)(C(=O)NO)N(C)C(=O)c1ccc(C#Cc2ccc(C(O)COC)cc2)cc1 (stereo partly drawn) [Example 13, (2S)—N-hydroxy-2-((4-((4-(1-hydroxy-2-methoxyethyl)phenyl)ethynyl)benzoyl)(methyl)amino)-N′,2-dimethyl-malonamide]",–,0.25,1,≥ 100,1
"CNC(=O)[C@@](C)(C(=O)NO)N(C)C(=O)c1ccc(C#Cc2ccc(CO[C@@H](C)CO)cc2)cc1 [Example 8, (2S)—N-hydroxy-2-((4-((4-(((1S)-2-hydroxy-1-methylethoxy)methyl)phenyl)ethynyl)benzoyl)(methyl)amino)-N′,2-dimethylmalonamide]",–,0.25,1,≥ 100,1
"CNC(=O)[C@@](C)(C(=O)NO)N(C)C(=O)c1ccc(C#Cc2ccc([C@H](O)COCCCO)cc2)cc1 [Example 28, (2S)—N-hydroxy-2-((4-((4-((1S)-1-hydroxy-2-(3-hydroxypropoxy)ethyl)phenyl)ethynyl)benzoyl)(methyl)amino)-N′,2-dimethyl-malonamide]",–,0.5,–,≥ 100,–
"CNC(=O)[C@@](C)(C(=O)NO)N(C)C(=O)c1ccc(C#Cc2ccc(COC3COC3)cc2)cc1 [Example 11, (2S)—N-hydroxy-N′,2-dimethyl-2-(methyl(4-((4-((oxetan-3-yloxy)methyl)phenyl)ethynyl)benzoyl)amino)malonamide]",–,0.0625,–,–,0.5
"CNC(=O)[C@@](C)(C(=O)NO)N(C)C(=O)c1ccc(C#Cc2ccc(COCC(C)(C)O)cc2)cc1 [Example 7, (2S)—N-hydroxy-2-((4-((4-((2-hydroxy-2-methylpropoxy)methyl)phenyl)ethynyl)benzoyl)(methyl)amino)-N′,2-dimethyl-malonamide]",–,0.25,1,≥ 100,0.5
"CNC(=O)[C@@](C)(C(=O)NO)N(C)C(=O)c1ccc(C#Cc2ccc(C(O)CCCO)cc2)cc1 (stereo partly drawn) [Example 35, (2S)-2-((4-((4-(1,4-dihydroxybutyl)phenyl)ethynyl)benzoyl)(methyl)amino)-N-hydroxy-N′,2-dimethyl-malonamide]",< 50,–,1,≥ 100,1
"CNC(=O)[C@@](C)(C(=O)NO)N(C)C(=O)c1ccc(C#Cc2ccc(CO[C@H](C)CO)cc2)cc1 [Example 10, (2S)—N-hydroxy-2-((4-((4-(((1R)-2-hydroxy-1-methylethoxy)methyl)phenyl)ethynyl)benzoyl)(methyl)amino)-N′,2-dimethyl-malonamide]",–,0.25,1,≥ 100,0.5
"CNC(=O)[C@@](C)(C(=O)NO)N(C)C(=O)c1ccc(C#Cc2ccc([C@@H](C)O)cc2)cc1 [Example 37, (2S)—N-hydroxy-2-((4-((4-((1R)-1-hydroxyethyl)phenyl)ethynyl)benzoyl)(methyl)amino)-N′,2-dimethyl-malonamide]",–,0.125,1,–,0.5
